Results on 4 molecules are retold here after patent US8546404B2, “Compounds that are ERK inhibitors” (Merck Sharp & Dohme, priority 2005, dated 2013).

Molecules are shown by their SMILES.

Data set [1] is described as follows: Cassette Accelerating Rapid Rat Screen (CARRS), AUC during the first 6 hours. Format: in vivo, Male Sprague-Dawley rats. To be noted: male, Sprague-Dawley, plasma, 10 mg/kg, PO, AUC during the first 6 hours (AUC6hr). The method, then:
The AUC (Area Under the Concentration-Time Curve During the First 6 Hours (AUC6hr) in Table 30 Below was Determined Using the Protocol of Cassette Accelerating Rapid Rat Screen (CARRS)
Animal Dosing and Sample Collection
Male Sprague-Dawley rats (Charles River, Co.) were pre-cannulated (femoral artery) in order to facilitate precise blood sampling times, and to reduce the stress on the animals caused by serial bleedings. Following an overnight fast, two rats were dosed orally with one compound at a dose of 10 mg/kg in a 5-mL/kg dose volume. Blood was collected into heparin-containing tubes serially from each animal at 0.5, 1, 2, 3, 4 and 6 h post-dosing and centrifuged to generate plasma. Approximately 100 μL of plasma were collected at the individual time points. The plasma samples were stored at −20° C. until analysis.
Plasma Sample and Standard Curve Preparation
A set of 12 rat plasma samples was generated for each NCE (i.e. 6 timepoints and n=2 rats). These 12 samples were pooled across the two rats at each timepoint to provide 6 pooled samples (one sample per time point) for each NCE. The pooled samples were assayed as cassettes of six (36 samples total) to provide data on the six compounds. The 50-μL aliquots of the 36 plasma samples were placed into individual wells of a 96-well plate. An additional compound (often a structural analog of the test compounds) was selected as the internal standard. A mini-calibration curve was prepared (three points plus a zero) for each compound assayed. Drug-free rat plasma was measured into 1-mL aliquots and each aliquot was spiked with known concentrations of the compounds to generate standards of the desired concentrations. The concentrations of the standards were chosen to bracket the expected concentration of the pooled samples based on historical data from previous studies on other compounds. For this work, the standards were set to contain concentrations of 25, 250 and 2500 ng NCE/mL plasma. The plasma standards were precipitated in duplicate along with the samples. Protein precipitation occurred after addition of 150 μL of acetonitrile containing the internal standard at a concentration of 1 ng/mL into each sample well using the Tomtec Quadra 96 system. The precipitated samples and standards were vortexed and centrifuged in the 96-well plate. Approximately 50-100 μL of the supernatant were removed and placed into a fresh 96-well plate using the Tomtec Quadra 96 system. A volume of 5-10 μL of the supernatant was used for analysis by HPLC-MS/MS. The mini-standard curve was run in duplicate, once before and once after the samples. Thus, a total of 14 study samples plus standards were analyzed per compound. In addition, solvent blanks were injected before and after each set of 14 and after the highest calibration standard for each compound; therefore, a total of 103 injections were made into each HPLC system for each set of six compounds. Multiple solvent blank injections could be made from a single well. Twelve solvent blank wells were designated in each 96-well plate. Thus, one batch (cassette) of six NCEs was prepared and assayed using one 96-well plate format.
All the compounds were analyzed using selected reaction monitoring (SRM) methods with LC/MS/MS instruments. Once the method development had been completed, the assay was quickly set up using a standard injection sequence template for the CARRS assay.

Data set [2] has as its target fully phosphorylated, active Mouse ERK2 protein (Mus musculus (Mouse), UniProt P63085). Kind of data set: Active ERK2 Assay (IMAP format). The settings on record: read-out: AERK2 IC50. Format: biochemical. The protocol:
Activated ERK2 activity was also determined in the IMAP assay format using the procedure outlined above. […] Reactions proceeded for 30 minutes before termination by addition of 60 μl IMAP detection beads in binding buffer. Plates were read as above after 30 minute binding equilibration.

Chain of fully phosphorylated, active Mouse ERK2 protein (P63085 whole entry): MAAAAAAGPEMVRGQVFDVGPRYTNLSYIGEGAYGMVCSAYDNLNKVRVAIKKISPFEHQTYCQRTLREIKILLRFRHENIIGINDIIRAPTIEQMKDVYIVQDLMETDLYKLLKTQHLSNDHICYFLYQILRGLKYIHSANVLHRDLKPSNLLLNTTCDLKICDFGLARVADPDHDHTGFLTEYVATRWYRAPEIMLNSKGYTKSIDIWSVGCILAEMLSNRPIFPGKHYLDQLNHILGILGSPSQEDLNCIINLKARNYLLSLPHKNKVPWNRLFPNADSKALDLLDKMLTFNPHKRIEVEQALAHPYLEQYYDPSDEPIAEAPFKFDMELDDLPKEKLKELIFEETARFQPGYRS

With `CO[C@@]1(C(=O)Nc2ccc3[nH]nc(-c4ccc(F)cc4)c3c2)CCN(CC(=O)N2CCC(c3ccc(-c4ncccn4)cc3)CC2)C1` [Example 479], in data set [1], the area under the curve (AUC) (usually the area under the concentration-time curve, a measure of exposure) stood at 2.2 µM·h. Besides, the half-inhibitory concentration (IC50) – broadly, the concentration that inhibits the measured activity by half – in data set [2] came out at 9.1 nM.
`CS[C@@]1(C(=O)Nc2ccc3[nH]nc(-c4ccc(F)cc4)c3c2)CCN(CC(=O)N2CC=C(c3ccc(-c4ncccn4)cc3)CC2)C1` [Example 613] returned an AUC in data set [1] of 25.9 µM·h. The IC50 in data set [2] was determined as 10 nM.
For `CCNc1nnc(-c2ccc(C3=CCN(C(=O)CN4CC[C@@](OC)(C(=O)Nc5ccc6[nH]nc(-c7ccc(F)cc7)c6c5)C4)CC3)c(F)c2)o1` [Example 622, 1-(2-{4-[4-(5-Ethylamino-[1,3,4]oxadiazol-2-yl)-2-fluoro-phenyl]-3,6-dihydro-2H-pyridin-1-yl}-2-oxo-ethyl)-3-methoxy-pyrrolidine-3-carboxylic acid [3-(4-fluoro-phenyl)-1 indazol-5-yl]-amide], the AUC in data set [1] turned out to be 1.13 µM·h. For the same molecule, the IC50 in data set [2] turned out to be 5 nM.
In turn, `CO[C@@]1(C(=O)Nc2ccc3[nH]nc(-c4ccc(F)cc4)c3c2)CCN(CC(=O)N2CC=C(c3ccc(-c4ncccn4)cc3F)CC2)C1` [Example 825] came in with an AUC in data set [1] of 1.1 µM·h. Besides, the IC50 in data set [2] was determined as 20 nM.
